Measured values taken from patent US20230203060A1 (GENFLEET THERAPEUTICS (SHANGHAI) INC., priority 2020, published 2023).

Biological target: T1, KRAS G12C (Homo sapiens, UniProt P01116, G12C)
T1 construct: purchased Reactionbiology
Assay: KRAS G12C NEA-HTRF experiment (SOS1-catalyzed displacement of GDP by GTP)
Type: biochemical
Outline: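 His-tagged KRAS G12C preloaded with DY647-GDP was preincubated 15 min at 20 °C with compound, then exchanged with SOS1 (0.2 μM working solution) and GTP (200 μM working solution) for 2 h at 20 °C in the dark. HTRF 665/615 nm ratio with anti-His-Tb was normalised to T0 and no-compound controls; IC50 by four-parameter fit.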

T1 sequence (P01116 1-188 isoform P01116-2 G12C): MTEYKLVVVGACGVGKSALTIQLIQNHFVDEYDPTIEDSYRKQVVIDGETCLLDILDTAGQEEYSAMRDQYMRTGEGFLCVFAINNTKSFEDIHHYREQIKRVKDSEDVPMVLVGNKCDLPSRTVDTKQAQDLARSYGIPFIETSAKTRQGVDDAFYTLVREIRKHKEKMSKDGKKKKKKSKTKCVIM

| Compound | IC50 [nM] |
| --- | --- |
| C=CC(=O)N1CCN2C(=O)c3c(N4CCN(C5CC5)C[C@@H]4C)nc(-c4c(O)cccc4F)c(Cl)c3OC[C@H]2C1 [Z312-1, (6aR)-8-acryloyl-4-chloro-1-((S)-4-cyclopropyl-2-methylpiperazin-1-yl)-3-(2-fluoro-6-hydroxyphenyl)-6,6a,7,8,9,10-hexahydro-12H-pyrazino[2,1-c]pyrido[3,4-f][1,4]oxazepin-12-one] | 134 |
| C=CC(=O)N1CCN2C(=O)c3c(N4Cc5cn(C)nc5C4C)nc(-c4c(O)cccc4F)c(Cl)c3OC[C@H]2C1 (some centres unmarked) [Z291-2] | 18 |
| C=CC(=O)N1CCN2C(=O)c3c(N4C[C@@H](N(C)C)CC4(C)C)nc(-c4c(O)cccc4F)c(Cl)c3OC[C@H]2C1 (single isomer, unassigned) [Z324-1] | 16 |
| C=CC(=O)N1CCN2C(=O)c3c(N4C[C@H](O)CC4(C)C)nc(-c4c(O)ccc(Cl)c4F)c(F)c3OC[C@H]2C1 (single isomer, unassigned) [Z340-2] | 98 |
| C=CC(=O)N1CCN2C(=O)c3c(N4CCN(C)C[C@@H]4C)nc(-c4c(O)ccc(Cl)c4F)c(Cl)c3OC[C@H]2C1 [Z343, (6aR)-8-acryloyl-4-chloro-3-(3-chloro-2-fluoro-6-hydroxyphenyl)-1-((S)-2,4-dimethylpiperazin-1-yl)-6,6a,7,8,9,10-hexahydro-12H-pyrazino[2,1-c]pyrido[3,4-f][1,4]oxazepin-12-one] | 101 |
| C=CC(=O)N1CCN2C(=O)c3c(N4C[C@H](CO)CC4(C)C)nc(-c4c(O)cccc4F)c(Cl)c3OC[C@H]2C1 (single isomer, unassigned) [Z240-2] | 11 |
| C=CC(=O)N1CCN2C(=O)c3c(N4CCN(C(C)=O)C[C@@H]4C)nc(-c4c(O)cccc4F)c(Cl)c3OC[C@H]2C1 [Z313-1] | 13 |
| C=CC(=O)N1CCN2C(=O)c3c(N4CC(OC)CC4(C)C)nc(-c4c(O)cccc4F)c(Cl)c3OC[C@H]2C1 (stereo partly drawn) [Z244, (6aR)-8-acryloyl-4-chloro-3-(2-fluoro-6-hydroxyphenyl)-1-(4-methoxy-2,2-dimethylpyrrolidin-1-yl)-12-oxo-6,6a,7,8,9,10-hexahydro-12H-pyrazino[2,1-c]pyrido[3,4-f][1,4]oxazepin-12-one] | 47 |
